# Experimental data from ChEMBL document CHEMBL1132475, “Synthesis and in vitro anti-HIV activity in human monocyte-derived macrophages of 2-oxothiazolidine-4(R)-carboxylic acid derivatives” (1999).
# Species on record: Homo sapiens
# Assay: The compound was tested for antiviral activity against HIV-1/Ba-L-infected monocyte-derived macrophages in human at a concentration of 0.5 mM
# Type: functional
# Conditions: at 0.5 mM
row,Structure (SMILES),Untreated control
1,O=C1N[C@H](C(=O)OCC(=O)c2ccccc2)CS1,69%
2,O=C1N[C@H](C(=O)O)CS1 [PROCYSTEINE],81%

# Species on record: Homo sapiens
# Assay: The compound was tested for antiviral activity against HIV-1/Ba-L-infected monocyte-derived macrophages in human at a concentration of 2 mM
# Type: functional
# Conditions: not given
row,Structure (SMILES),Percent of untreated control
1,CC(=O)N1C(=O)SC[C@H]1C(=O)O,34%
2,CCOC(=O)[C@@H]1CSC(=O)N1C(=O)CC[C@H](N)C(=O)O.Cl,37%
3,Cl.N[C@@H](CCC(=O)N1C(=O)SC[C@H]1C(=O)NCC(=O)O)C(=O)O,159%
4,Cl.N[C@@H](CCC(=O)N1C(=O)SC[C@H]1C(=O)O)C(=O)O,83%
5,CC(C)(C)OC(=O)CNC(=O)[C@@H]1CSC(=O)N1,104%
6,O=C(O)CNC(=O)[C@@H]1CSC(=O)N1,45%
7,CCOC(=O)[C@@H]1CSC(=O)N1,86%
8,CC(C)(C)OC(=O)N[C@@H](CCC(=O)N1C(=O)SC[C@H]1C(=O)O)C(=O)OC(C)(C)C,102%
9,CC(=O)N[C@@H](CS)C(=O)O [ACETYLCYSTEINE],88%
10,O=C1N[C@H](C(=O)O)CS1 [PROCYSTEINE],37
